# Test results reported in US20050239656A1, “Pyridine compounds or salts thereof and herbicides containing the same” (priority 2002, published 2005).
# Tested on: barnyardgrass
# Experiment: Test Example 2: soil surface treatment, upland pot test
# Assay type: in vivo, Echinochloa crus-galli L.
# Details: active ingredient 500 g/ha, observed 20th to 28th day
# Procedure, shortened: (§1)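 Upland soil in pots of 1/170,000 ha is sown; on day 1 after sowing the formulated compound (wettable powder or emulsifiable concentrate, predetermined a.i. amount, water volume 1,500 L/ha) is applied to the soil surface with a small sprayer. Percent control is judged by eye 20–28 days later.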
row,SMILES,Growth controlling degree (%) Barnyardgrass
1,CC(C)C(c1cnccc1Cl)N(C)C(=O)COc1ccccc1 (centres unmarked) [Compound I-84],80%
2,CCN(C(=O)Cc1ccc(C(F)(F)F)cc1)C(c1cnccc1C(F)(F)F)C(C)C (centres unmarked) [Compound I-79],100%
3,CC(C)C(c1cnccc1C(F)(F)F)N(C)C(=O)Cc1ccsc1 (centres unmarked) [I-170],100%
4,CCN(C(=O)Cc1ccccc1)C(c1cnccc1Cl)C(C)C (centres unmarked) [Compound I-102],100%
5,Cc1cccc(CC(=O)N(C)C(c2cnccc2C(F)(F)F)C(C)C)c1 (centres unmarked) [I-87],100%

# Tested on: crabgrass
# Experiment: as above
# Assay type: in vivo, Digitaria sanguinalis L.
# Details: active ingredient 500 g/ha, observed 20th to 28th day
# Procedure, shortened: as §1
row,SMILES,Growth controlling degree (%) Crabgrass
1,CC(C)C(c1cnccc1Cl)N(C)C(=O)COc1ccccc1 (centres unmarked) [Compound I-84],70%
2,CCN(C(=O)Cc1ccc(C(F)(F)F)cc1)C(c1cnccc1C(F)(F)F)C(C)C (centres unmarked) [Compound I-79],100%
3,CC(C)C(c1cnccc1C(F)(F)F)N(C)C(=O)Cc1ccsc1 (centres unmarked) [I-170],98%
4,CCN(C(=O)Cc1ccccc1)C(c1cnccc1Cl)C(C)C (centres unmarked) [Compound I-102],98%
5,Cc1cccc(CC(=O)N(C)C(c2cnccc2C(F)(F)F)C(C)C)c1 (centres unmarked) [I-87],98%

# Tested on: green foxtail
# Experiment: as above
# Assay type: in vivo, Setaria viridis L.
# Details: active ingredient 500 g/ha, observed 20th to 28th day
# Procedure, shortened: as §1
row,SMILES,Growth controlling degree (%) Green foxtail
1,CC(C)C(c1cnccc1Cl)N(C)C(=O)COc1ccccc1 (centres unmarked) [Compound I-84],30%
2,CCN(C(=O)Cc1ccc(C(F)(F)F)cc1)C(c1cnccc1C(F)(F)F)C(C)C (centres unmarked) [Compound I-79],100%
3,CC(C)C(c1cnccc1C(F)(F)F)N(C)C(=O)Cc1ccsc1 (centres unmarked) [I-170],100%
4,CCN(C(=O)Cc1ccccc1)C(c1cnccc1Cl)C(C)C (centres unmarked) [Compound I-102],100%
5,Cc1cccc(CC(=O)N(C)C(c2cnccc2C(F)(F)F)C(C)C)c1 (centres unmarked) [I-87],95%

# Tested on: redroot pigweed
# Experiment: as above
# Assay type: in vivo, Amaranthus retroflexus L.
# Details: active ingredient 500 g/ha, observed 20th to 28th day
# Procedure, shortened: as §1
row,SMILES,Growth controlling degree (%) Redroot pigweed
1,CC(C)C(c1cnccc1Cl)N(C)C(=O)COc1ccccc1 (centres unmarked) [Compound I-84],50%
2,CCN(C(=O)Cc1ccc(C(F)(F)F)cc1)C(c1cnccc1C(F)(F)F)C(C)C (centres unmarked) [Compound I-79],80%
3,CC(C)C(c1cnccc1C(F)(F)F)N(C)C(=O)Cc1ccsc1 (centres unmarked) [I-170],30%
4,CCN(C(=O)Cc1ccccc1)C(c1cnccc1Cl)C(C)C (centres unmarked) [Compound I-102],20%
5,Cc1cccc(CC(=O)N(C)C(c2cnccc2C(F)(F)F)C(C)C)c1 (centres unmarked) [I-87],85%

# Tested on: prickly sida
# Experiment: as above
# Assay type: in vivo, Sida spinosa L.
# Details: active ingredient 500 g/ha, observed 20th to 28th day
# Procedure, shortened: as §1
row,SMILES,Growth controlling degree (%) Prickly sida
1,CC(C)C(c1cnccc1Cl)N(C)C(=O)COc1ccccc1 (centres unmarked) [Compound I-84],0%
2,CCN(C(=O)Cc1ccc(C(F)(F)F)cc1)C(c1cnccc1C(F)(F)F)C(C)C (centres unmarked) [Compound I-79],100%
3,CC(C)C(c1cnccc1C(F)(F)F)N(C)C(=O)Cc1ccsc1 (centres unmarked) [I-170],95%
4,CCN(C(=O)Cc1ccccc1)C(c1cnccc1Cl)C(C)C (centres unmarked) [Compound I-102],60%
5,Cc1cccc(CC(=O)N(C)C(c2cnccc2C(F)(F)F)C(C)C)c1 (centres unmarked) [I-87],100%

# Tested on: velvetleaf
# Experiment: as above
# Assay type: in vivo, Abutilon theophrasti MEDIC.
# Details: active ingredient 500 g/ha, observed 20th to 28th day
# Procedure, shortened: as §1
row,SMILES,Growth controlling degree (%) Velvetleaf
1,CC(C)C(c1cnccc1Cl)N(C)C(=O)COc1ccccc1 (centres unmarked) [Compound I-84],0%
2,CCN(C(=O)Cc1ccc(C(F)(F)F)cc1)C(c1cnccc1C(F)(F)F)C(C)C (centres unmarked) [Compound I-79],80%
3,CC(C)C(c1cnccc1C(F)(F)F)N(C)C(=O)Cc1ccsc1 (centres unmarked) [I-170],30%
4,CCN(C(=O)Cc1ccccc1)C(c1cnccc1Cl)C(C)C (centres unmarked) [Compound I-102],0%
5,Cc1cccc(CC(=O)N(C)C(c2cnccc2C(F)(F)F)C(C)C)c1 (centres unmarked) [I-87],70%

# Tested on: rice
# Experiment: as above
# Assay type: in vivo, Oryza sativa L.
# Details: active ingredient 500 g/ha, observed 20th to 28th day
# Procedure, shortened: as §1
row,SMILES,Growth controlling degree (%) Rice
1,CC(C)C(c1cnccc1Cl)N(C)C(=O)COc1ccccc1 (centres unmarked) [Compound I-84],20%
2,CCN(C(=O)Cc1ccc(C(F)(F)F)cc1)C(c1cnccc1C(F)(F)F)C(C)C (centres unmarked) [Compound I-79],10%
3,CC(C)C(c1cnccc1C(F)(F)F)N(C)C(=O)Cc1ccsc1 (centres unmarked) [I-170],30%
4,CCN(C(=O)Cc1ccccc1)C(c1cnccc1Cl)C(C)C (centres unmarked) [Compound I-102],10%
5,Cc1cccc(CC(=O)N(C)C(c2cnccc2C(F)(F)F)C(C)C)c1 (centres unmarked) [I-87],0%

# Tested on: corn
# Experiment: as above
# Assay type: in vivo, Zea mays L.
# Details: active ingredient 500 g/ha, observed 20th to 28th day
# Procedure, shortened: as §1
row,SMILES,Growth controlling degree (%) Corn
1,CC(C)C(c1cnccc1Cl)N(C)C(=O)COc1ccccc1 (centres unmarked) [Compound I-84],20%
2,CCN(C(=O)Cc1ccc(C(F)(F)F)cc1)C(c1cnccc1C(F)(F)F)C(C)C (centres unmarked) [Compound I-79],10%
3,CC(C)C(c1cnccc1C(F)(F)F)N(C)C(=O)Cc1ccsc1 (centres unmarked) [I-170],50%
4,CCN(C(=O)Cc1ccccc1)C(c1cnccc1Cl)C(C)C (centres unmarked) [Compound I-102],35%
5,Cc1cccc(CC(=O)N(C)C(c2cnccc2C(F)(F)F)C(C)C)c1 (centres unmarked) [I-87],40%

# Tested on: soybean
# Experiment: as above
# Assay type: in vivo, Glycine max Merr.
# Details: active ingredient 500 g/ha, observed 20th to 28th day
# Procedure, shortened: as §1
row,SMILES,Growth controlling degree (%) Soyabean
1,CC(C)C(c1cnccc1Cl)N(C)C(=O)COc1ccccc1 (centres unmarked) [Compound I-84],0%
2,CCN(C(=O)Cc1ccc(C(F)(F)F)cc1)C(c1cnccc1C(F)(F)F)C(C)C (centres unmarked) [Compound I-79],10%
3,CC(C)C(c1cnccc1C(F)(F)F)N(C)C(=O)Cc1ccsc1 (centres unmarked) [I-170],35%
4,CCN(C(=O)Cc1ccccc1)C(c1cnccc1Cl)C(C)C (centres unmarked) [Compound I-102],20%
5,Cc1cccc(CC(=O)N(C)C(c2cnccc2C(F)(F)F)C(C)C)c1 (centres unmarked) [I-87],0%

# Tested on: barnyardgrass
# Experiment: Test Example 3: paddy pot test, application under submerged conditions
# Assay type: in vivo, Echinochloa crus-galli L.
# Details: active ingredient 250 g/ha; submerged application at 0.5 leaf stage; visually observed 14 days after application; 0 = non-treated, 100 = complete kill
# Procedure, shortened: (§2)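 Visual growth-control rating (0 = untreated, 100 = complete kill) 14 days after treatment. The formulated compound, as a diluted wettable powder or emulsifiable concentrate, went into 3–4 cm flood water at a predetermined active-ingredient dose once the weeds reached 0.5 leaf stage (wapato: primary leaf stage).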
row,SMILES,Growth controlling degree (%) Barnyardgrass
1,CC(C)C(c1cnccc1Cl)N(C)C(=O)COc1ccccc1 (centres unmarked) [Compound I-84],98%
2,CCN(C(=O)Cc1ccc(C(F)(F)F)cc1)C(c1cnccc1C(F)(F)F)C(C)C (centres unmarked) [Compound I-79],100%
3,CC(C)C(c1cnccc1C(F)(F)F)N(C)C(=O)Cc1ccsc1 (centres unmarked) [I-170],100%
4,CCN(C(=O)Cc1ccccc1)C(c1cnccc1Cl)C(C)C (centres unmarked) [Compound I-102],98%
5,Cc1cccc(CC(=O)N(C)C(c2cnccc2C(F)(F)F)C(C)C)c1 (centres unmarked) [I-87],100%

# Tested on: japanese bulrush
# Experiment: as above
# Assay type: in vivo, Scirpus juncoides
# Details: active ingredient 250 g/ha; submerged application at 0.5 leaf stage; visually observed 14 days after application; 0 = non-treated, 100 = complete kill
# Procedure, shortened: as §2
row,SMILES,Growth controlling degree (%) Japanese bulrush
1,CC(C)C(c1cnccc1Cl)N(C)C(=O)COc1ccccc1 (centres unmarked) [Compound I-84],98%
2,CCN(C(=O)Cc1ccc(C(F)(F)F)cc1)C(c1cnccc1C(F)(F)F)C(C)C (centres unmarked) [Compound I-79],70%
3,CC(C)C(c1cnccc1C(F)(F)F)N(C)C(=O)Cc1ccsc1 (centres unmarked) [I-170],100%
4,CCN(C(=O)Cc1ccccc1)C(c1cnccc1Cl)C(C)C (centres unmarked) [Compound I-102],100%
5,Cc1cccc(CC(=O)N(C)C(c2cnccc2C(F)(F)F)C(C)C)c1 (centres unmarked) [I-87],90%

# Tested on: japanese ribbon wapato
# Experiment: as above
# Assay type: in vivo, Sagittaria pygniaea
# Details: active ingredient 250 g/ha; submerged application at primary leaf stage; visually observed 14 days after application; 0 = non-treated, 100 = complete kill
# Procedure, shortened: as §2
row,SMILES,Growth controlling degree (%) Japanese ribbon wapato
1,CC(C)C(c1cnccc1Cl)N(C)C(=O)COc1ccccc1 (centres unmarked) [Compound I-84],20%
2,CCN(C(=O)Cc1ccc(C(F)(F)F)cc1)C(c1cnccc1C(F)(F)F)C(C)C (centres unmarked) [Compound I-79],40%
3,CC(C)C(c1cnccc1C(F)(F)F)N(C)C(=O)Cc1ccsc1 (centres unmarked) [I-170],70%
4,CCN(C(=O)Cc1ccccc1)C(c1cnccc1Cl)C(C)C (centres unmarked) [Compound I-102],60%
5,Cc1cccc(CC(=O)N(C)C(c2cnccc2C(F)(F)F)C(C)C)c1 (centres unmarked) [I-87],70%

# Tested on: rice (var. Nihonbare)
# Experiment: Test Example 3: paddy pot test, transplanted rice
# Assay type: in vivo, Oryza sativa L.
# Details: active ingredient 250 g/ha, applied 4th day after transplantation, visually observed 21st day after application, 0 = non-treated, 100 = complete kill
# Procedure, shortened: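 Rice (var. Nihonbare) at 2 leaf stage transplanted 3 cm deep into puddled paddy soil under 3–4 cm flooding; on day 4 after transplanting, diluted wettable powder or emulsifiable concentrate applied by pipette under submerged conditions at a set active-ingredient dose. Growth scored visually 21 days after application, 0 (untreated) to 100 (complete kill) %.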
row,SMILES,Growth controlling degree (%) Rice
1,CC(C)C(c1cnccc1Cl)N(C)C(=O)COc1ccccc1 (centres unmarked) [Compound I-84],0%
2,CCN(C(=O)Cc1ccc(C(F)(F)F)cc1)C(c1cnccc1C(F)(F)F)C(C)C (centres unmarked) [Compound I-79],20%
3,CC(C)C(c1cnccc1C(F)(F)F)N(C)C(=O)Cc1ccsc1 (centres unmarked) [I-170],0%
4,CCN(C(=O)Cc1ccccc1)C(c1cnccc1Cl)C(C)C (centres unmarked) [Compound I-102],10%
5,Cc1cccc(CC(=O)N(C)C(c2cnccc2C(F)(F)F)C(C)C)c1 (centres unmarked) [I-87],0%
